Measured values from patent publication US6716833B2, “Acetylenic α-amino acid-based sulfonamide hydroxamic acid tace inhibitors” (priority 1999, dated 2004).
Structures can show the parent of a compound that is named as a salt. Where two headings read alike, the source gives them in different places.

Tests used:
Assay type in all cases: biochemical
MMP-9 = MMP-9 (Homo sapiens, UniProt P14780); assay: MMP-9 inhibition (thiopeptide or fluorescent peptide substrate); settings: read-out: MMP-9 IC50
Chain of MMP-9 (P14780 94-707): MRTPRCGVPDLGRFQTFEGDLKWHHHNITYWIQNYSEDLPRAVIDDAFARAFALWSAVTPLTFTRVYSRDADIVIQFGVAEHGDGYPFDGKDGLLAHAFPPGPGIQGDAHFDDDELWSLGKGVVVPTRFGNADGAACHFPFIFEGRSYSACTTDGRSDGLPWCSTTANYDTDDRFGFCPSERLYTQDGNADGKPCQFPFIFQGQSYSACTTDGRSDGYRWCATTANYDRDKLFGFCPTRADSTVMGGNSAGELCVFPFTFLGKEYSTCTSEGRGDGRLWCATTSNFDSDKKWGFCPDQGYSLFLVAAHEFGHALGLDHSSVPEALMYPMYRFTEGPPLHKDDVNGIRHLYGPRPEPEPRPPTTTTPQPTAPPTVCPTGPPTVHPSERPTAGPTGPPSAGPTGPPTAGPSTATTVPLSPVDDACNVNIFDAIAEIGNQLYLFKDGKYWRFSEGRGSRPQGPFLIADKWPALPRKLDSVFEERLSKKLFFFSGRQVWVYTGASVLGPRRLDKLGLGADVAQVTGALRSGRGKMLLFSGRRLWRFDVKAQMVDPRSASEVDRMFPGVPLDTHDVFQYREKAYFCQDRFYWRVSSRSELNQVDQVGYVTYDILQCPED
Method: (§1) The enzyme activity is measured by the rate of the color increase. The thiopeptide substrate is made up fresh as a 20 mM stock in 100% DMSO and the DTNB is dissolved in 100% DMSO as a 100 mM stock and stored in the dark at room temperature. Both the substrate and DTNB are diluted together to 1 mM with substrate buffer (50 mM HEPES pH 7.5, 5 mM CaCl2) before use. The stock of enzyme is diluted with buffer (50 mM HEPES, pH 7.5, 5 mM CaCl2, 0.02% Brij) to the desired final concentration.
(§2) Alternatively, a fluorescent peptide substrate is used. In this test procedure, the peptide substrate contains a fluorescent group and a quenching group. Upon cleavage of the substrate by an MMP, the fluorescence that is generated is quantitated on the fluorescence plate reader. The assay is run in HCBC assay buffer (50 mM HEPES, pH 7.0, 5 mM Ca^+2, 0.02% Brij, 0.5% Cysteine), with human recombinant MMP-1, MMP-9, or MMP-13. […] For the assay, substrate and enzymes are diluted in HCBC buffer to the desired concentrations. Compounds are added to the 96 well plate containing enzyme and the reaction is started by the addition of substrate.
(§3) For either the thiopeptide or fluorescent peptide test procedures, the slope of the line is calculated and represents the reaction rate. The linearity of the reaction rate is confirmed (r^2>0.85). The mean (x±sem) of the control rate is calculated and compared for statistical significance (p<0.05) with drug-treated rates using Dunnett's multiple comparison test.

[1] = molecular target: TNF-α converting enzyme (TACE) (Homo sapiens, UniProt P78536); assay: TACE inhibition (fluorescent peptidyl substrate); settings: read-out: TACE IC50
Chain of TNF-α converting enzyme (TACE) (P78536 215-824, species assumed): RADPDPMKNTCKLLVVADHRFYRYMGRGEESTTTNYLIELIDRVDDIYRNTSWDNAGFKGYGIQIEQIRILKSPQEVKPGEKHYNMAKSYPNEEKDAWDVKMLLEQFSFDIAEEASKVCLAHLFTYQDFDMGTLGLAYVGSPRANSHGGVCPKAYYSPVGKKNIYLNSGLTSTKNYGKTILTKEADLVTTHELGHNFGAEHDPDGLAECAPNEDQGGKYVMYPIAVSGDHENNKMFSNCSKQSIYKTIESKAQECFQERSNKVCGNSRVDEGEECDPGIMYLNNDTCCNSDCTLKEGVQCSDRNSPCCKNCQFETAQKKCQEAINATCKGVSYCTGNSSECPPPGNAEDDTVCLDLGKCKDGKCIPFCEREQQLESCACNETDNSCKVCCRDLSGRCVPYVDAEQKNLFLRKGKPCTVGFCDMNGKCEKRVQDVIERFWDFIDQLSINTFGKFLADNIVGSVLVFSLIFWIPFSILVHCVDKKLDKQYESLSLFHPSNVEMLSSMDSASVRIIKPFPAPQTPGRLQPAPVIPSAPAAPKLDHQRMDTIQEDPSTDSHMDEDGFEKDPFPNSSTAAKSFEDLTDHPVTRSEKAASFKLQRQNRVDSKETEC

MMP-13 = MMP-13 (Homo sapiens, UniProt P45452); assay: MMP-13 inhibition (thiopeptide or fluorescent peptide substrate); settings: read-out: MMP-13 IC50
MMP-1 = molecular target: T1, MMP-1 (Homo sapiens, UniProt P03956); assay: MMP-1 inhibition (thiopeptide or fluorescent peptide substrate); settings: read-out: MMP-1 IC50
T1 sequence (P03956 100-469): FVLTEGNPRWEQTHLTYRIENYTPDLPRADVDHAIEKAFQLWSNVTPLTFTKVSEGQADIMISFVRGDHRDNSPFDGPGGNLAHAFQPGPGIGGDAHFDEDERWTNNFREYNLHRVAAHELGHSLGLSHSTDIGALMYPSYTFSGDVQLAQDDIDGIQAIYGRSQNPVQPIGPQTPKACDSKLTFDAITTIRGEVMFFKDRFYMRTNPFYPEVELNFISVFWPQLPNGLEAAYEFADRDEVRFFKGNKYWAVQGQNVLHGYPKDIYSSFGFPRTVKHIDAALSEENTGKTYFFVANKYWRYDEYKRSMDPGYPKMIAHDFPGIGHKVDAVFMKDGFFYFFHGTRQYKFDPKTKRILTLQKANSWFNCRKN
Method: as §1, §2, §3

Structure (SMILES): CC#CCOc1ccc(S(=O)(=O)N2CSC(C)(C)[C@@H]2C(=O)NO)cc1 [Example 286, (4S)-3-{[4-(2-Butynyloxy)phenyl]sulfonyl}-N-hydroxy-5,5-dimethyl-1,3-thiazolidine-4-carboxamide]
- IC50 (MMP-9): 1790 nM
- IC50 [1]: 20 nM
- IC50 (MMP-13): 852 nM
- IC50 (MMP-1): 3040 nM

Structure (SMILES): CC#CCOc1ccc(S(=O)(=O)N[C@@H](C(=O)NO)c2ccc(OCCN)cc2)cc1 [Example 200, (2R)-2-[4-(2-Aminoethoxy)phenyl]-2-({[4-(2-butynyloxy)phenyl]sulfonyl}amino)-N-hydroxyethanamide]
- IC50 (MMP-9): 518 nM
- IC50 [1]: 15 nM
- IC50 (MMP-13): 176 nM
- IC50 (MMP-1): ~10000 nM

Structure (SMILES): CC#CCOc1ccc(S(=O)(=O)N2CCN(C(=O)N(C(C)C)C(C)C)CC2C(=O)NO)cc1 (stereo not shown) [Example 218, 4-(4-but-2-ynyloxy-Benzenesulfonyl)-piperazine-1,3-dicarboxylic Acid 1-Diisopropylamide 3-Hydroxyamide]
- IC50 (MMP-9): 822 nM
- IC50 [1]: 49 nM
- IC50 (MMP-13): 213 nM
- IC50 (MMP-1): 3290 nM

Structure (SMILES): CC#CCOc1ccc(S(=O)(=O)N(C)[C@@H](C(=O)NO)c2ccc(O[C@H]3CCNC3)cc2)cc1 [Example 190, (2R)-2-[{[4-(2-Butynyloxy)phenyl]sulfonyl}(methyl)amino]-N-hydroxy-2-{4-[(3S)-pyrrolidinyloxy]phenyl}ethanamide]
- IC50 (MMP-9): 37 nM
- IC50 [1]: 32 nM
- IC50 (MMP-13): 29 nM
- IC50 (MMP-1): 527 nM

Structure (SMILES): CC#CCOc1ccc(S(=O)(=O)N2CCN(C(=O)N(C)c3ccccc3)CC2C(=O)NO)cc1 (stereo not shown) [Example 220, 4-(4-but-2-ynyloxy-Benzenesulfonyl)-piperazine-1,3-dicarboxylic Acid 3-Hydroxyamide 1-(Methyl-phenyl-amide)]
- IC50 (MMP-9): 561 nM
- IC50 [1]: 20 nM
- IC50 (MMP-13): 62 nM
- IC50 (MMP-1): 1640 nM

Structure (SMILES): CC#CCOc1ccc(S(=O)(=O)N[C@@H](C(=O)NO)c2ccc(OCCNC(C)=O)cc2)cc1 [Example 201, (2R)-2-{4-[2-(Acetylamino)ethoxy]phenyl}-2-({[4-(2-butynyloxy)phenyl]sulfonyl}amino)-N-hydroxyethanamide]
- IC50 (MMP-9): 569 nM
- IC50 [1]: 9.4 nM
- IC50 (MMP-13): 73 nM
- IC50 (MMP-1): ~10000 nM

Structure (SMILES): CC#CCOc1ccc(S(=O)(=O)N(C)C(C(=O)NO)c2ccc(OCCN(C)C)cc2)cc1 (stereo not shown) [Example 182, 2-[{[4-(2-Butynyloxy)phenyl]sulfonyl}(methyl)amino]-2-{4-[2-(dimethylamino)ethoxy]phenyl}-N-hydroxyacetamide]
- IC50 (MMP-9): 22 nM
- IC50 [1]: 16 nM
- IC50 (MMP-13): 15 nM
- IC50 (MMP-1): 487 nM

Structure (SMILES): CC#CCOc1ccc(S(=O)(=O)N(Cc2cccnc2)C(C(=O)NO)C(C)C)cc1 (stereo not shown) [Example 114, 2-[(4-but-2-ynyloxy-Benzenesulfonyl)-pyridin-3-ylmethyl-amino]-N-hydroxy-3-methyl-butyramide]
- IC50 (MMP-9): 193 nM
- IC50 [1]: 93 nM
- IC50 (MMP-13): 94 nM
- IC50 (MMP-1): 236 nM

Structure (SMILES): CC#CCOc1ccc(S(=O)(=O)N2CCN(C(C)=O)CC2C(=O)NO)cc1 (stereo not shown) [Example 224, 4-Acetyl-1-(4-but-2-ynyloxy-benzenesulfonyl)-piperazine-2-carboxylic Acid Hydroxyamide]
- IC50 (MMP-9): 88 nM
- IC50 [1]: 13 nM
- IC50 (MMP-13): 22 nM
- IC50 (MMP-1): 357 nM

Structure (SMILES): CC#CCOc1ccc(S(=O)(=O)N(C)C(C(=O)NO)c2ccc(OCCN3CCOCC3)cc2)cc1 (stereo not shown) [Example 179, 2-[{[4-(2-Butynyloxy)phenyl]sulfonyl}(methyl)amino]-N-hydroxy-2-{4-[2-(4-morpholinyl)ethoxy]phenyl}acetamide]
- IC50 (MMP-9): 29 nM
- IC50 [1]: 52 nM
- IC50 (MMP-13): 11 nM
- IC50 (MMP-1): 546 nM

Structure (SMILES): CC#CCOc1ccc(S(=O)(=O)N(Cc2cccnc2)C(C)C(=O)NO)cc1 (stereo not shown) [Example 33, 2-[(4-but-2-ynyloxy-Benzenesulfonyl)-pyridin-3-ylmethyl-amino]-N-hydroxy-propionamide Hydrochloride]
- IC50 (MMP-9): 65 nM
- IC50 [1]: 5 nM
- IC50 (MMP-13): 26 nM
- IC50 (MMP-1): 239 nM

Structure (SMILES): CC(C)(C)OC(=O)NCC#CCOc1ccc(S(=O)(=O)N2CCSC(C)(C)C2C(=O)NO)cc1 (stereo not shown) [Example 266, tert-Butyl 4-[4-({3-[(Hydroxyamino)carbonyl]-2,2-dimethyl-4-thiomorpholinyl}sulfonyl)phenoxy]-2-butynylcarbamate]
- IC50 (MMP-9; Table 10): 31 nM
- IC50 ([1]; Table 10): 74 nM
- IC50 (MMP-13; Table 10): 4 nM
- IC50 (MMP-1; Table 10): 26 nM

Structure (SMILES): CC#CCOc1ccc(S(=O)(=O)N(C)C(C(=O)NO)c2ccc(OCCN3CCN(C(=O)OC(C)(C)C)CC3)cc2)cc1 (stereo not shown) [Example 185, tert-Butyl 4-(2-{4-[1-[{[4-(2-Butynyloxy)phenyl]sulfonyl}(methyl)amino]-2-(hydroxyamino)-2-oxoethyl]phenoxy}ethyl)-1-piperazinecarboxylate]
- IC50 (MMP-9): 53 nM
- IC50 [1]: 309 nM
- IC50 (MMP-13): 27 nM
- IC50 (MMP-1): 839 nM

Structure (SMILES): CC1(C)SCCN(S(=O)(=O)c2ccc(OCC#CCCCN)cc2)[C@H]1C(=O)NO [Example 251, (3S)-4-({4-[(6-Amino-2-hexynyl)oxy]phenyl}sulfonyl)-N-hydroxy-2,2-dimethyl-3-thiomorpholine Carboxamide]
- IC50 (MMP-9; Table 10): 28 nM
- IC50 ([1]; Table 10): 28 nM
- IC50 (MMP-13; Table 10): 8.7 nM
- IC50 (MMP-1; Table 10): 226 nM

Structure (SMILES): CC#CCOc1ccc(S(=O)(=O)N2CCN(C(=O)Nc3ccc(F)cc3)CC2C(=O)NO)cc1 (stereo not shown) [Example 222, 4-{[4-(2-Butynyloxy)phenyl]sulfonyl}-N-1-(4-fluorophenyl)-N-3-hydroxy-1,3-piperazinedicarboxamide]
- IC50 (MMP-9): 173 nM
- IC50 [1]: 30 nM
- IC50 (MMP-13): 75 nM
- IC50 (MMP-1): 941 nM

Structure (SMILES): CC#CCOc1ccc(S(=O)(=O)N2CCN(C(=O)CN)CC2C(=O)NO)cc1 (stereo not shown) [Example 230, 4-Aminoacetyl-1-(4-but-2-ynyloxy-benzenesulfonyl)-piperazine-2-carboxylic Acid Hydroxyamide]
- IC50 (MMP-9): 1230 nM
- IC50 [1]: 127 nM
- IC50 (MMP-13): 410 nM
- IC50 (MMP-1): 8500 nM

Structure (SMILES): CC#CCOc1ccc(S(=O)(=O)N(Cc2cccnc2)[C@@H](C(=O)NO)C2CCCCC2)cc1 [Example 116, 2-[(4-but-2-ynyloxy-Benzenesulfonyl)-pyridin-3-ylmethyl-amino]-2-cyclohexyl-N-hydroxy-acetamide]
- IC50 (MMP-9): 336 nM
- IC50 [1]: 204 nM
- IC50 (MMP-13): 53 nM
- IC50 (MMP-1): 218 nM

Structure (SMILES): CC#CCOc1ccc(S(=O)(=O)N2CCN(C)CC2C(=O)NO)cc1 (stereo not shown) [Example 56, 1-(4-but-2-ynyloxy-Benzenesulfonyl)-4-methyl-piperazine-2-carboxylic Acid Hydroxyamide Hydrochloride]
- IC50 (MMP-9): 667 nM
- IC50 [1]: 41 nM
- IC50 (MMP-13): 158 nM
- IC50 (MMP-1): 3340 nM

Structure (SMILES): CC1(C)SCCN(S(=O)(=O)c2ccc(OCC#CCCCOC3CCCCO3)cc2)C1C(=O)NO (stereo not shown) [Example 248, N-Hydroxy-2,2-dimethyl-4-[(4-{[6-(tetrahydro-2H-pyran-2-yloxy)-2-hexynyl]oxy}phenyl)sulfonyl]-3-thiomorpholine Carboxamide]
- IC50 (MMP-9; Table 10): 48 nM
- IC50 ([1]; Table 10): 92 nM
- IC50 (MMP-13; Table 10): 7.3 nM
- IC50 (MMP-1; Table 10): 98 nM

Structure (SMILES): CC#CCOc1ccc(S(=O)(=O)N[C@@H](C(=O)NO)c2ccc(OCCNC(=O)OC(C)(C)C)cc2)cc1 [Example 199, tert-Butyl 2-{4-[(1R)-1-({[4-(2-Butynyloxy)phenyl]sulfonyl}amino)-2-(hydroxyamino)-2-oxoethyl]phenoxy}ethylcarbamate]
- IC50 (MMP-9): 862 nM
- IC50 [1]: 42 nM
- IC50 (MMP-13): 139 nM
- IC50 (MMP-1): ~10000 nM

Structure (SMILES): CC1(C)SCCN(S(=O)(=O)c2ccc(OCC#CCCN)cc2)C1C(=O)NO (stereo not shown) [Example 246, 4-({4-[(5-Amino-2-pentynyl)oxy]phenyl}sulfonyl)-N-hydroxy-2,2-dimethyl-3-thiomorpholine Carboxamide]
- IC50 (MMP-9; Table 10): 41 nM
- IC50 ([1]; Table 10): 138 nM
- IC50 (MMP-13; Table 10): 27 nM
- IC50 (MMP-1; Table 10): 1050 nM

Structure (SMILES): CC#CCOc1ccc(S(=O)(=O)N2CCN(C(=O)Nc3ccc(OC)cc3)CC2C(=O)NO)cc1 (stereo not shown) [Example 221, 4-{[4-(2-Butynyloxy)phenyl]sulfonyl}-N-3-hydroxy-N-1-(4-methoxyphenyl)-1,3-piperazinedicarboxamide]
- IC50 (MMP-9): 576 nM
- IC50 [1]: 69 nM
- IC50 (MMP-13): 182 nM
- IC50 (MMP-1): 1510 nM

Structure (SMILES): CC#CCOc1ccc(S(=O)(=O)N2CCN(C(=O)OC(C)(C)C)CC2C(=O)NO)cc1 (stereo not shown) [Example 58, 4-(4-but-2-ynyloxy-Benzenesulfonyl)-3-hydroxycarbamoyl-piperazine-1-carboxylic Acid tert-Butyl Ester]
- IC50 (MMP-9): 24 nM
- IC50 [1]: 21 nM
- IC50 (MMP-13): 17 nM
- IC50 (MMP-1): 456 nM

Structure (SMILES): CC#CCOc1ccc(S(=O)(=O)N2CCS(=O)(=O)C(C)(C)[C@@H]2C(=O)NO)cc1 [Example 257, (3S)-4-{[4-(2-Butynyloxy)phenyl]sulfonyl}-N-hydroxy-2,2-dimethyl-3-thiomorpholine Carboxamide 1,1-Dioxide]
- IC50 (MMP-9; Table 9): 64 nM
- IC50 ([1]; Table 9): 24 nM
- IC50 (MMP-13; Table 9): 23 nM
- IC50 (MMP-1; Table 9): 24 nM

Structure (SMILES): CC#CCOc1ccc(S(=O)(=O)N2CCN(C(=O)CNC(=O)OC(C)(C)C)CC2C(=O)NO)cc1 (stereo not shown) [Example 229, {2-[4-(4-but-2-ynyloxy-Benzenesulfonyl)-3-hydroxycarbamoyl-piperazin-1-yl]-2-oxo-ethyl}-carbamic Acid tert-Butyl Ester]
- IC50 (MMP-9): 322 nM
- IC50 [1]: 64 nM
- IC50 (MMP-13): 85 nM
- IC50 (MMP-1): 1010 nM
